Source: US20250034116A1, “1,4-DIHETEROCYCLIC SUBSTITUTED AROMATIC RING OR AROMATIC HETEROCYCLIC COMPOUND AND USE THEREOF” (BeBetter Med Inc., priority 2022, published 2025)
Read-outs that look alike come from different tables or passages of the source.

Legend:
[1] = tested on: CYP enzymes in human liver microsomes (HLM); assay: Inhibition of 20-HETE production in human liver microsomes (HLM); type: biochemical
In short: (§1)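 Liver microsomes (human or mouse) or recombinant CYP4F2 or CYP4A11 in potassium phosphate buffer mixed with compound, then with 400 μM substrate solution (stock). After 10 min preincubation at 37 °C, reaction started with 6 mM NADPH solution (stock) and run 25 min at 37 °C. 20-HETE formation quantified by LC-MS/MS; IC50 from a four-parameter Hill fit, with percent inhibition also reported at 1000, 500 or 100 nM.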

[2] = tested on: CYP enzymes in rat liver microsomes (RLM); assay: Inhibition of 20-HETE production in rat liver microsomes (RLM); type: biochemical
In short: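 Test compounds were dissolved in DMSO, diluted in acetonitrile/DMSO (3:1), and 2 μl was mixed with 100 μl potassium phosphate buffer containing rat liver microsomes in a 96-well plate. Duplicate 30 μl aliquots received 15 μl of 400 μM substrate, were preheated at 37° C. for 10 minutes, then started with 15 μl of 6 mM NADPH for 25 minutes. LC-MS/MS measured 20-HETE formation.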

[3] = tested on: CYP enzymes in mouse liver microsomes (MLM); assay: Inhibition of 20-HETE production in mouse liver microsomes (MLM); type: biochemical
In short: as §1

[4] = biological target: recombinant CYP4F2 (rCYP4F2) (Homo sapiens (Human), UniProt P78329); assay: Inhibition of 20-HETE production by recombinant CYP4F2; type: biochemical; conditions: for inhibition at 0.1 µM: read-out: rCYP4F2 (% inh @ 100 nM)
Procedure: (§2) Experimental principle: The inhibitory activity of 20-HETE production is evaluated by testing the inhibitory effects of the compound on human liver microsomes (HLM), rat liver microsomes (RLM), mouse liver microsomes (MLM), or […] CYP4 subtype enzymes (CYP4F2). This assay employs HLM, RLM, or MLM along with recombinant CYP4F2 (rCYP4F2) and recombinant CYP4A11 (rCYP4A11), which are […] CYP4 subtype enzymes, to detect the effects of the test compound at different concentrations on the metabolic rate of enzyme-specific substrates, to determine the inhibitory effects of the test compound on CYP enzymes in HLM, RLM, or MLM.
(§3) Experimental methods: Dissolve the test compound in DMSO, and subsequently dilute it with an acetonitrile and DMSO mixture (3:1). Add 2 μl of varying concentrations of the test compound and 100 μl of potassium phosphate buffer containing either liver microsomes or recombinant enzymes to a 96-well plate. After mixing well, transfer 30 μl to another well (in duplicate), add 15 μl of 400 μM substrate solution, and mix well again. Preheat at 37° C. for 10 minutes, and then add 15 μl of 6 mM NADPH and incubate at 37° C. for 25 minutes. After 25 minutes, add 160 μl of acetonitrile solution (containing 0.1 μg/ml internal standard) to stop the reaction. Mix well, centrifuge at 3500 g for 15 minutes, and then analyze the supernatant using LC-MS/MS.
(§4) Plot the compound concentration on the x-axis and the inhibition rate on the y-axis to draw the curve. Use GraphPad Prism 5 software to fit the curve and calculate the IC50. The formula is Y=Bottom+(Top−Bottom)/(1+10^((Log IC50−X)×HillSlope)). X represents the logarithmic concentration of the inhibitor, and Y represents the relative enzyme activity at a given inhibitor concentration (relative to the condition without the inhibitor).
(§5) Calculate the inhibition percentages at concentrations of 1000 nM, 500 nM, or 100 nM as well as the half-maximal inhibitory concentration (IC50) of the test compound from the above experiment.

[5] = biological target: recombinant CYP4A11 (rCYP4A11) (Homo sapiens (Human), UniProt Q02928); assay: Inhibition of 20-HETE production by recombinant CYP4A11; type: biochemical; conditions: for inhibition at 0.1 µM: read-out: rCYP4A11 (% inh @ 100 nM)
Procedure: as §2, §3, §4, §5

[6] = Pharmacokinetic (PK) experiment, oral administration in rats; type: in vivo, Male SD rats; conditions: 20 mg/kg; for AUC(0-inf) / Cmax / Tmax / half-life / AUC(0-t): male, SD, rat, plasma; for AUC(0-t): read-out: AUC0-24
Procedure: Male SD rats, weighing 180-250 grams, were fasted overnight before testing. The test compound was dissolved in 30% sulfobutylether-β-cyclodextrin and administered orally at a dose of 20 mg/kg. Blood was collected from the tail vein at 15 minutes, 30 minutes, and 1, 2, 4, 6, 8, and 24 hours after administration. Approximately 0.3 ml of blood was collected at each time point, placed in a centrifuge tube containing K2-EDTA, and centrifuged (2000 g for 10 minutes at 4° C.) to take the plasma, which was then stored in an ultra-low temperature freezer at −70° C. or below. A 50 μL plasma sample was mixed with 135 μL of acetonitrile (containing 0.5 μg/mL internal standard) and vortexed for protein precipitation. After centrifugation, the supernatant was taken for LC-MS/MS analysis.

[7] = tested on: diet-induced obesity (DIO) mouse model; assay: Experiment 1: compound 1, weight loss and blood glucose lowering in DIO mouse model; type: in vivo, Male C57BL/6J mice
Procedure: Experiment 1 was to investigate the effects of compound 1 on weight loss and blood glucose lowering in a diet-induced obesity (DIO) mouse model. Male C57BL/6J mice were purchased from Zhuhai BST Biotechnology Co., Ltd. and housed in a barrier system animal facility. The animals were randomly divided into 3 groups: normal control group, DIO model control group, and DIO model compound 1 treatment group, with 6 animals per group. The treatment group received compound 1 orally at a dose of 100 mg/kg on the first day of high-fat diet (HFD) feeding, once daily for 32 consecutive days. Animal weights were measured weekly, and on day 33, they were fasted overnight but allowed access to water before an oral glucose tolerance test (OGTT).

[8] = tested on: diet-induced obesity (DIO) mouse model; assay: Experiment 4: weight loss of compound 2 compared with semaglutide in DIO mouse model; type: in vivo, Male C57BL/6J mice; conditions: 30 nmol/kg subcutaneously once daily
From the text: Experiment 4 was to compare the weight loss effects of compound 2 with that of semaglutide in a diet-induced obesity (DIO) mouse model. Male C57BL/6J mice were purchased from Vital River Laboratories (Shanghai) Co., Ltd. and housed in a barrier system animal facility. Animals were randomly divided into 4 groups: normal control group, DIO model control group, compound 2 treatment group, and semaglutide treatment group, with 6 animals per group. The model control group and treatment groups were first fed with high-fat diet (HFD) for 18 weeks, after which the treatment groups were administered with compound 2 or semaglutide, respectively. Compound 2 was administered orally at a dose of 30 mg/kg once daily for 14 consecutive weeks, while semaglutide was administered subcutaneously at a dose of 30 nmol/kg once daily. After 7 weeks of semaglutide treatment, the semaglutide treatment group was switched to compound 2 treatment for another 7 weeks.

[9] = tested on: diet-induced obesity (DIO) mouse model; assay: Experiment 2: compound 2 and 4, weight loss and blood glucose lowering in DIO mouse model; type: in vivo, Male C57BL/6J mice
From the text: Experiment 2 was to study the effects of compound 2 and 4 on weight loss and blood glucose lowering in a diet-induced obesity (DIO) mouse model. Male C57BL/6J mice were purchased from Zhuhai BST Biotechnology Co., Ltd. and housed in a barrier system animal facility. Animals were randomly divided into 4 groups: normal control group, DIO model control group, DIO model compound 2 treatment group, and DIO model compound 4 treatment group, with 4-5 animals per group. The model control group and treatment groups were first fed with high-fat diet (HFD) for 9 weeks (day 63), and then the treatment groups were orally administered with compound 2 or compound 4 at a dose of 50 mg/kg once daily for 4 consecutive weeks, while continuing to receive HFD. Animal weights were measured weekly, and on the last day of treatment, they were fasted overnight but allowed access to water before an oral glucose tolerance test (OGTT).

[10] = cited from earlier work
[11] = tested on: Cyp4a 14−/− hypertensive mice; conditions: Cyp4a14−/− hypertensive mice; cited from earlier work
Cyp4a14−/− mice = conditions: cited from earlier work
20-HETE = conditions: read-out: inhibitory activity (inhibitor of 20-HETE); cited from earlier work
[12] = tested on: cyclooxygenase and lipoxygenase; conditions: cited from earlier work
[13] = cited from earlier work; remark: listed apart in the source
[14] = 50 mg/kg orally once daily for 4 weeks, DIO mice

Sequence of recombinant CYP4F2 (rCYP4F2) (P78329 5-520): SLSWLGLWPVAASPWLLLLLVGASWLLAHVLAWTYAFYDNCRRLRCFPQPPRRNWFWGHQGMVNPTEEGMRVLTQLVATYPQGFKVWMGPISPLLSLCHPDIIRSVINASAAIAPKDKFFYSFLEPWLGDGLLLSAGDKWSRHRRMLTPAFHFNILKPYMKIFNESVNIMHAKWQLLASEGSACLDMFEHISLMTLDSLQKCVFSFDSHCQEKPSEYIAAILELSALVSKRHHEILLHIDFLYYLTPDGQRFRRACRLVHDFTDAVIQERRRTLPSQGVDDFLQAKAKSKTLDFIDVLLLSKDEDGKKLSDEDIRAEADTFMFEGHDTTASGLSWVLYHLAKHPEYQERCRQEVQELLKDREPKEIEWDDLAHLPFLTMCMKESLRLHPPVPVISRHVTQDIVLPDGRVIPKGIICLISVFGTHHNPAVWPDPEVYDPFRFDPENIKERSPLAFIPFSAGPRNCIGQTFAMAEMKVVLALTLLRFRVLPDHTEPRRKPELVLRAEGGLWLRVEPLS
Sequence of recombinant CYP4A11 (rCYP4A11) (Q02928 5-519): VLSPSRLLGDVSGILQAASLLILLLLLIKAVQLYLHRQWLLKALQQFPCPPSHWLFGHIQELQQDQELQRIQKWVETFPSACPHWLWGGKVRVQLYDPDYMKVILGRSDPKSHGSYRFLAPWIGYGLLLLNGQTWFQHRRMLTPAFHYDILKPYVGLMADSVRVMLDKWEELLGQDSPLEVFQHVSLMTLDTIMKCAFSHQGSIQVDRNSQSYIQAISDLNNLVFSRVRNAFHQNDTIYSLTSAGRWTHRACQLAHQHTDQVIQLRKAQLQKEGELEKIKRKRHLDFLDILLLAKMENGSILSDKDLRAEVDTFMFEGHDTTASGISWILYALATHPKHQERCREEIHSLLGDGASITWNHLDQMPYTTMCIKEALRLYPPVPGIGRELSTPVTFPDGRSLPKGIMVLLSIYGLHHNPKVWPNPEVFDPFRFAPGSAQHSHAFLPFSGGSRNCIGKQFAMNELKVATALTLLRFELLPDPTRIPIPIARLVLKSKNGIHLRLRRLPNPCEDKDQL

HLM (% inh @ 500 nM) [1] [%]	IC50 [2] [nM]	RLM (% inh @ 500 nM) [2] [%]	IC50 [3] [nM]	inhibition at 0.1 µM [4] [%]	inhibition at 0.1 µM [5] [%]	AUC(0-inf) [6] [ng·h/mL]	Cmax [6] [ng/mL]	Tmax [6] [h]	half-life [6] [min]	AUC(0-t) [6] [ng·h/mL]	IC50 [1] [nM]	Compound	absorption and blood exposure after oral administration (in words) [6]	other results
79.83	224	54.99	1220	59.5	35.4	125000	9980	1.5	434	113000	–	O=C1CCCN1CC1CCN(c2ccc(-c3cn[nH]c3)cc2)CC1 [Compound 1, 1-((1-(4-(1H-pyrazol-4-yl)phenyl)piperidin-4-yl)methyl)pyrrolidin-2-one]	well absorbed and exhibit high blood exposure	IC50 [4]: 24 nM; body weight ([7]; 100 mg/kg orally once daily for 32 days from first day of HFD): stabilized around the initial weight after 1 week and remained stable thereafter; fasting blood glucose ([7]; 100 mg/kg orally once daily for 32 days, DIO mice): inhibit the increase in fasting blood glucose; glucose metabolism (OGTT) ([7]; 100 mg/kg orally once daily for 32 days, OGTT day 33): enhance glucose metabolism
–	–	–	–	–	–	–	–	–	–	–	–	semaglutide [reference compound]	–	maximum weight-loss effect, decrease compared to the pre-treatment weight ([8]; after 2 weeks): approximately 20%; food intake, fraction of the model control group ([8]; first 2 weeks): ⅓ to ½
85.53	89.5	72.00	1350	61.7	–	59000	7260	1.33	234	58100	25.8	O=C1CCCN1CC1CCN(c2ccc(-c3cn[nH]c3)c(F)c2F)CC1 [Compound 4, 1-((1-(2,3-difluoro-4-(1H-pyrazol-4-yl)phenyl)piperidin-4-yl)methyl)pyrrolidin-2-one]	well absorbed and exhibit high blood exposure	IC50 [4]: 18.8 nM; IC50 [5]: 53.7 nM; fasting blood glucose [9, 14]: inhibit the increase in fasting blood glucose; glucose metabolism (OGTT) [9, 14]: enhance glucose metabolism; body weight decrease, of the pre-administration weight ([9]; 50 mg/kg orally once daily, first week of administration, after 9 weeks HFD): 12%-16%
89.67	124	63.62	1670	78	53.9	40500	7150	1.67	176	40300	–	O=C1CCCCN1CC1CCN(c2ccc(-c3cn[nH]c3)c(F)c2F)CC1 [Compound 26, 1-((1-(2,3-difluoro-4-(1H-pyrazol-4-yl)phenyl)piperidin-4-yl)methyl)piperidin-2-one]	well absorbed and exhibit high blood exposure	–
89.73	5.36	–	1330	70.1	50.6	86000	7880	2.33	151	85800	19.1	O=C(N1CCCC1)N1CCN(c2ccc(-c3cn[nH]c3)c(F)c2F)CC1 [Compound 72, (4-(2,3-difluoro-4-(1H-pyrazol-4-yl)phenyl)piperazin-1-yl)(pyrrolidin-1-yl) methanone]	well absorbed and exhibit high blood exposure	–
–	–	–	–	–	–	–	–	–	–	–	–	COCCOCCOCCOCCOCCOCCOC(=O)CCCC/C=C\CCCCCCC/C=C\CCCCO [Compound 20-SOLA]	–	solubility [10]: more water-soluble; blood pressure [11]: restore blood pressure to normal; hyperglycemia and hyperinsulinemia (Cyp4a14−/− mice): improve hyperglycemia and hyperinsulinemia; weight gain induced by a high-fat diet (Cyp4a14−/− mice): reduce the weight gain
–	–	–	–	–	–	–	–	–	–	–	–	CCCCc1ccc(N=CNO)c(C)c1 [HET0016]	–	IC50 (20-HETE): 8.9 nM; effect on the activity of cyclooxygenase and lipoxygenase [12]: no effect; solubility [10]: poor; half-life [13]: short
79.09	598	38.16	> 10000	54.6	35.6	2640	562	1.5	212	2630	51.8	O=C1CCCN1Cc1ccc(C2CCN(c3cn[nH]c3)CC2)cc1 [Reference 83, reference compound]	–	–
89.89	4.9	–	135	79.2	65.5	69000	7320	3	154	68800	19.4	O=C(C1CCCC1)N1CCC(c2ccc(-c3cn[nH]c3)cc2)CC1 [Compound 70, (4-(4-(1H-pyrazol-4-yl)phenyl)piperidin-1-yl)(cyclopentyl) methanone]	well absorbed and exhibit high blood exposure	–
